Data on 1 compound can be found in patent publication US9258995B2, “Organ cold storage composition and methods of use” (BOARD OF TRUSTEES OF THE UNIVERSITY OF ARKANSAS, priority 2009, dated 2016).

The conditions of data set [1]: two phase II clinical trials for Parkinson's disease and hepatitis C virus; cited from earlier work.
Data set [2] relates to porcine renal mitochondrial respiratory complex II/III. Put plainly: Mitochondrial respiratory complex activity, porcine ex vivo renal model. The arrangement: protection of porcine complex II/III: dose or concentration left out as unconfirmed. The method, then: (§1) FIG. 15 depicts graphs showing activities or (A) porcine renal mitochondrial respiratory complex I, (B) activities or porcine renal mitochondrial respiratory complex II/III, and (C) activities or porcine renal mitochondrial respiratory complex IV, after MitoQ treatment. MitoQ ([…]) protected porcine complex II/III following 24 hr cold preservation. Values are expressed as mean SEM (n=4).
(§2) Mitochondrial respiratory complex activity was also evaluated in the porcine ex vivo renal model at 24-h and 48-h CS. […] Protection of Complex II/III by MitoQ (100 μM) was significant following 24-h cold preservation.

Data set [3] relates to NRK cells. Put plainly: Nitrotyrosine immunocytochemistry, CS plus rewarming. The data set is classed as cell-based, rat. The following applies: 4-h CS plus overnight (18 h) RW, 1 μM added during CS. Here is the method:
Normal rat kidney proximal tubular cells (NRK-52E; American Type Culture Collection, Manassas, Va.) were maintained in six-well 100 or 150-mm, or 150-mm plates in a humidified incubator gassed with 5% CO2 and 95% air at 37° C. in DMEM (Invitrogen, Carlsbad, Calif.) containing 5% fetal calf serum (FCS). Cells were grown to 60% confluence and divided into four treatment groups: 1) untreated (Untx), 2) CS, 3) CS+MitoQ, and 4) CS+DecylTPP. Untreated cells remained at 37° C. in DMEM containing 5% FCS (group 1). CS was initiated by washing cells with cold PBS (Invitrogen) twice and storing them in UW/Viaspan solution alone (4 h at 4° C.) (group 2), CS+MitoQ (1 μM) (group 3), or CS+DecylTPP (1 μM) (group 4). In separate experiments, cells were exposed to CS plus RW by replacing UW solution alone or UW solution containing MitoQ or DecylTPP with DMEM containing 5% FCS overnight (18 h at 37° C.).
(§3) NRK cells (groups 1-4) were assessed for nitrotyrosine formation as previously described. […] Nitrotyrosine staining was evaluated and captured with equal exposure times using a Nikon Eclipse 800 microscope (40×oil). Images were quantified by averaging the mean intensity fluorescence of five random cells in three different fields using Nikon N is Elements software. Renal tissue sections were assessed for the presence of nitrotyrosine protein adducts by nitrotyrosine immunohistochemistry. […]

For data set [4], the system named is NRK cells. The data set can be described thus: MitoSOX Red mitochondrial superoxide generation, cold storage in vitro model. The data set is classed as cell-based, rat. The following applies: 4 h CS at 4° C. in UW, 1 μM. The method, then:
Normal rat kidney proximal tubular cells (NRK-52E; American Type Culture Collection, Manassas, Va.) were maintained in six-well 100 or 150-mm, or 150-mm plates in a humidified incubator gassed with 5% CO2 and 95% air at 37° C. in DMEM (Invitrogen, Carlsbad, Calif.) containing 5% fetal calf serum (FCS). Cells were grown to 60% confluence and divided into four treatment groups: 1) untreated (Untx), 2) CS, 3) CS+MitoQ, and 4) CS+DecylTPP. Untreated cells remained at 37° C. in DMEM containing 5% FCS (group 1). […]
MitoSOX Red (Invitrogen) was used to measure mitochondrial superoxide generation during CS. […] Fluorescence was visualized using an Eclipse E800 microscope (Nikon, Melville, N.Y.) with a rhodamine filter using a water immersion objective (60×). Fluorescent images of NRK cells were captured with equal exposure times and quantified by averaging the mean intensity fluorescence of five random cells in three different fields using Nikon N is Elements software. In separate experiments, cells were grown on coverslips, preloaded with MitoSOX Red before treatment (groups 1-4), and evaluated for mitochondrial superoxide generation using a Hitachi F-2500 spectrofluorometer (Hitachi, Tokyo, Japan) equipped with a coverslip holder using two different excitation wavelengths: 396 and 510 nm with the emission measured at 580 nm as previously described. […]

For data set [5] the following is noted: patients with chronic hepatitis C virus infection, phase II clinical trials; cited from earlier work.
Data set [6] relates to porcine renal mitochondrial respiratory complex IV. Put plainly: Mitochondrial respiratory complex activity, porcine ex vivo renal model. The method, then: as §1, §2
Data set [7] deals with porcine renal mitochondrial respiratory complex I. The description is as above. Here is the method:
as §1, §2

A further data set concerns rat kidneys. The data set can be described thus: Nitrotyrosine immunohistochemistry during CS. The following applies: 4 h CS, 100 μM. Here is the method: All animals were treated according to the National Institutes of Health Guide for the Care and Use of Laboratory Animals and the University of Arkansas for Medical Sciences Institutional Animal Care and Use Committee guidelines. Male Fischer 344 inbred rats (Charles Rivers Laboratories, Inc., Wilmington, Mass.) weighing between 250 and 300 g were anesthetized with ethrane, followed by shaving and prepping with betadine. […] Bulldog clamps were placed on the aorta and vena cava (proximal and distal to the renal vessels) to prevent blood flow to the kidneys. A 22-gauge surgical needle was used to puncture the rat's aorta to flush the renal grafts with saline (10 ml per kidney) using a small catheter. Once the kidneys started to turn light brown (perfusion), another vent was formed in the vena cava to allow blood flow from the kidneys. […]
as §3

As for `COC1=C(OC)C(=O)C(CCCCCCCCCC[P+](c2ccccc2)(c2ccccc2)c2ccccc2)=C(C)C1=O` [MitoQ, mitoquinone], the safety and tolerability entry in data set [1] is “safe and well tolerated”. Also, the “protection of Complex II/III activity, 24-h versus 48-h CS” value in data set [2] (porcine ex vivo renal model) is given as “at 24-h better than at 48-h”. For the same compound, in data set [2] (porcine kidneys, 24-h cold preservation, MitoQ (100 μM)), the “Protection of Complex II/III” value is given as “significant”. The “protection of porcine complex II/III” value in data set [2] (porcine kidneys, 24 hr cold preservation) is on record as “protected”. Also, in the data set with NRK cells [3], the “nitrotyrosine staining during CS.RW” value is “attenuated nitrotyrosine staining significantly”. For the same compound, in the data set with NRK cells [4], the “CS-induced mitochondrial superoxide generation (MitoSOX Red)” value is reported as “significant protection”. Further, the liver damage result in data set [5] is “reduce liver damage”. The “protection of Complex IV activity, 24-h versus 48-h CS” value in data set [6] is “at 24-h better than at 48-h”. Further, the “protection of Complex I activity, 24-h versus 48-h CS” value in data set [7] was “at 24-h better than at 48-h”. In addition, the “nitrotyrosine formation (immunohistochemistry)” value with rat kidneys was “less nitrotyrosine formation”.
